Measured values reported in US20240165282A1, “CONFORMATIONAL CONSTRAINED SOMATOSTATIN RECEPTOR 3 PEPTIDE LIGANDS AND THEIR CONJUGATES AND USES THEREOF” (STARGET PHARMA LTD., priority 2021, published 2024).
*1 amine or outer side, *2 acyl side, *3 side chain or, on linkers, in order; H or OH if unused. Where a SMILES comes first, the peptide text is derived from it. Bridges are numbered along the chain shown (N, C = ends). [ ]: non-standard residue; d: D form. The star is where a group is joined. DOTA = O=C(O)CN1CCN(CC(=O)O)CCN(CC(=O)*)CCN(CC(=O)O)CC1; N(2-mercaptoethyl)Gly = O=C(CN(CCS[*:3])[*:1])[*:2]

What was measured:
[1] = system: Xenograft of SSTR3 transfected HEK-293 cells; assay: in vivo; details: rat
Description: (§1) In this example, imaging performance, biodistribution and tumor uptake of SSTR3 selective radioligands in rodents bearing xenografts of transfected SSTR3 cells was determined using the following method: Animal handling was conducted in accordance with the European Council Directive 2010/63/UE. All experimental procedures were approved by the Institutional Ethical Committee and local authorities. For biodistribution studies, female nude nu/nu Balb/c mice or nude nu/nu rats (Charles River) were used. Dynamic PET-CT imaging experiments were performed up to 240 minutes in mice and up to 270 minutes in rats, under isoflurane anesthesia following the intravenous injection of the radiolabeled tracers. All experiments were performed during the light phase of the light—dark cycle. Biodistribution was determined by quantitative analysis of the PET-CT scan and calculated as % percentage of […] of the total injected dose (%ID/g) or by the value of SUV which is the ratio of the image-derived radioactivity concentration Cimg and the whole-body concentration of the injected radioactivity Cinj.

in vivo = details: iv, total radioactivity
Description: as §1

[2] = system: Desmoplastic Small Round Cell Tumor with SSTR3 expression; type: in vivo, human
Description: In this example, the safety, biodistribution, imaging performance and tumor uptake in patient with sarcoma type DSRCT tumor positive SSTR3 expression was evaluated. Following radiolabeling of the title compound, the eluted solution of the radiolabel tracer was filtered for sterility and injected intravenously in isotonic solution. PET-CT scan was performed at 30- and 120-minutes post injection of the radiolabeled tracer at approximately 600 Mbq. Body temperature, heart rate, and blood pressure were monitored before during and after the PET-CT scan for safety evaluation. The patient was a person, diagnosed for DSRCT 8 years prior. Over the last 8 years, before the current example, the patient was treated with External beam radiation therapy (EBRT), chemotherapy (Irinotecan/temozolomide, melphalan/treosuflan, gemcitabine/docetaxel, pazopanib, topotecan/cyclophosphamide, cabozantinib, densumab), and laminectomy (to resect spine—tumoral foci). A biopsy analysis was performed 3 months before the PET-CT and indicated high mRNA expression of SSTR3.

SSTR3 [3] = target: T1, SSTR3 (Homo sapiens, UniProt P32745); assay: β-Arrestin mediated receptor internalization (PathHunter), transfected CHO cells; type: cell-based; parameters: host or cells: CHO cells
Description: (§2) The assays were performed utilizing the PathHunter beta-arrestin enzyme fragment complementation (EFC) technology by Eurofins (CA, USA).
(§3) Cell Handling: 1. PathHunter cell lines were expanded from freezer stocks according to standard procedures. 2. Cells were seeded in a total volume of 20 μL into white walled, 384-well microplates and incubated at 37° C. for the appropriate time prior to testing. Agonist Format: 1. For agonist determination, cells were incubated with sample to induce response. 2. Intermediate dilution of sample stocks was performed to generate 5× sample in assay buffer. 3. 5 μL of 5× sample was added to cells and incubated at 37° C. or room temperature for 90 or 180 minutes. Final assay vehicle concentration was 1%. […] Microplates were read following signal generation with a PerkinElmer Envision™ instrument for chemiluminescent signal detection. Data Analysi: Compound activity was analyzed using CBIS data analysis suite (ChemInnovation, CA). […] For agonist mode assays, percentage activity was calculated using the following formula: % Activity=100%×(mean RLU of test sample−mean RLU of vehicle control)/(mean MAX control ligand−mean RLU of vehicle control). […] For antagonist mode assays, percentage inhibition was calculated using the following formula: % Inhibition =100%×(1−(mean RLU of test sample−mean RLU of vehicle control)/(mean RLU of EC80 control−mean RLU of vehicle control)). […]

SSTR3 [4] = target: T1, SSTR3; assay: Radioligand binding, displacement of 125I-Tyr11-SRIF-14; parameters: host or cells: CHO (Chinese Hamster Ovary) cells, membrane preparation; details: for affinity and selectivity to SSTR3 (in words): binding data; for Hill coefficient (nH) / Ki / IC50: hSSTR-3; for Ki: Cheng and Prusoff, read-out: Ki; for IC50: read-out: IC50
Method in brief: (§4)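 Assays ran at 25 °C in 25 mM HEPES pH 7.4 with 5 mM MgCl2, 1 mM CaCl2, 0.1% BSA and 1% DMSO. Filter-bound radioactivity gave IC50 by nonlinear least-squares regression.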

SSTR1 = SSTR1 (Homo sapiens, UniProt P30872); assay: as above; parameters: host or cells: CHO (Chinese Hamster Ovary) cells, membrane preparation; details: hSSTR-1; for IC50: read-out: IC50
Method in brief: as §4

SSTR2 [5] = target: T2, SSTR2 (Homo sapiens, UniProt P30874); assay: as above; parameters: host or cells: CHO (Chinese Hamster Ovary) cells, membrane preparation; details: hSSTR-2; for IC50: read-out: IC50
Method in brief: as §4

hSSTR-4 = target: T3, hSSTR-4 (Homo sapiens, UniProt P31391); assay: as above; details: hSSTR-4; for IC50: read-out: IC50
T3 construct: host or cells: Chem-1 (Rat ChemiSCREEN) cells, membrane preparation
Method in brief: as §4

SSTR5 = SSTR5 (Homo sapiens, UniProt P35346); assay: as above; parameters: host or cells: Chem-1 (Rat ChemiSCREEN) cells, membrane preparation; details: hSSTR-5; for IC50: read-out: IC50
Method in brief: as §4

GH release = assay: L-arginine induced GH release in rats; type: in vivo, Wistar rats; details: S.C. 100-1000 microgram/kg, L-arginine stimulation
Description: (§5) In vivo determination of the pharmacodynamic properties of SSTR3 analogs was carried out in rats, according to known procedures (Afargan M. et al., 2001, Pless J. et al 1986).
Inhibition of GH release as a result of peptide administration was measured in Wistar male rats.
(§6) Adult male Wistar rats weighing 200-220 g, were maintained on a constant light-dark cycle (light from 8:00 to 20:00 h), temperature (21±3° C.), and relative humidity (55±10%). Laboratory chow and tap water were available ad libitum. All animals in the study were fasted overnight, animals were placed in cages with metal mesh to prevent coprophagia with free access to water. On the day of the experiment, rats were anesthetized with Nembutal (IP, 60 mg/kg). Ten minutes after anesthesia, drugs were administrated S.C. at 100-1000 microgram/kg dose. At 10 minutes after drugs administration the stimulation of GH and glucagon release were carried out by i.v. bolus administration of 0.5 g/kg L-arginine, stimulation of insulin release was carried out in separate animal groups that received i.v. bolus of 0.5 g/kg of glucose. Terminal blood samples in EDTA were collected at 5 minutes after stimulation. Blood samples were and centrifuged immediately. Plasma was separated and kept frozen at −20° C. until assayed.
Rat growth hormone (rGH), glucagon and insulin levels were determined by commercial ELISA kits using the Millipore ELISA kits (Billerica, MA, USA). The ELISA kit for rat plasma GH, Millipore, Cat. No. EZRMGH-45K was performed according to the validated detection method of colorimetric sandwich ELISA protocol (Supriya S. et al., 2013). The ELISA kit for rat plasma insulin, Millipore Cat. No. MMEZRMI13K (Merck) was performed according to the validated detection method of fluorescent colorimetric protocol (Xu, P.Z. et al., 2012). […]
(§7) Data analysis of rat plasma GH, glucagon and insulin levels was evaluated by the averaged plasma hormones levels of each group. […] Results are expressed as the mean±SEM.

insulin release = assay: Glucose induced insulin release in rats; type: in vivo, Wistar rats; details: S.C. 100-1000 microgram/kg, glucose stimulation
Description: as §5, §6
Rat growth hormone (rGH), glucagon and insulin levels were determined by commercial ELISA kits using the Millipore ELISA kits (Billerica, MA, USA). The ELISA kit for rat plasma GH, Millipore, Cat. No. EZRMGH-45K was performed according to the validated detection method of colorimetric sandwich ELISA protocol (Supriya S. et al., 2013). The ELISA kit for rat plasma insulin, Millipore Cat. No. MMEZRMI13K (Merck) was performed according to the validated detection method of fluorescent colorimetric protocol (Xu, P.Z. et al., 2012). The ELISA kit for rat plasma glucagon, Millipore, Cat. No. EZGLU-35 was performed according to the validated detection method of chemiluminescent sandwich ELISA protocol (Soyeon Y. et al., 2021).
as §7

SSTR2 [6] = target: T2, SSTR2; assay: β-Arrestin mediated receptor internalization (PathHunter), transfected CHO cells; type: cell-based; details: SSTR2 transfected cells
Description: as §2, §3

[7] = Physicochemical studies of surface activity; details: nonspecific binding
[8] = female, nude nu/nu Balb/c, mouse, Kidneys % ID/cm^3
[9] = female, nude nu/nu Balb/c, mouse, Tumor % ID/cm^3
[10] = Cheng and Prusoff, read-out: Ki

T3 sequence (P31391 whole entry): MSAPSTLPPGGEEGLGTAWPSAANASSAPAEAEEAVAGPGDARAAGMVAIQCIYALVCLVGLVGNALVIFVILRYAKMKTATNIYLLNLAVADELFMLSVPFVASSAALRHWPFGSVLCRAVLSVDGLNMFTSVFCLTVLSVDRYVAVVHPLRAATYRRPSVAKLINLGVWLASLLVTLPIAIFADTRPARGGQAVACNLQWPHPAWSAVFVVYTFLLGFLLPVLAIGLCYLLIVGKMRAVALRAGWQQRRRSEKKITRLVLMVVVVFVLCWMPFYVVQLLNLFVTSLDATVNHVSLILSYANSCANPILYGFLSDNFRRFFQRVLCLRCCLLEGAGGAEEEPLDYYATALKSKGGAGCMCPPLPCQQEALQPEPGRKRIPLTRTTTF
T2 sequence (P30874 whole entry): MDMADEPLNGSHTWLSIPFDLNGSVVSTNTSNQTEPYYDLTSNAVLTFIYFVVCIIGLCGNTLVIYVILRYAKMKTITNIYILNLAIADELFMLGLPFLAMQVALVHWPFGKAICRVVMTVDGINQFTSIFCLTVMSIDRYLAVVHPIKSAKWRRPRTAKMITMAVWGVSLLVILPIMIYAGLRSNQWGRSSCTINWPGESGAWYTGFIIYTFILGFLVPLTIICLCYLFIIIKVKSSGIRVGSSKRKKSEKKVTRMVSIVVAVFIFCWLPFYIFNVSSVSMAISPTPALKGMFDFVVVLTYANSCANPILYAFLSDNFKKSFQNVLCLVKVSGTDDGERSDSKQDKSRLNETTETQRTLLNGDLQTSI
T1 sequence (P32745 whole entry, the tested form may be a part): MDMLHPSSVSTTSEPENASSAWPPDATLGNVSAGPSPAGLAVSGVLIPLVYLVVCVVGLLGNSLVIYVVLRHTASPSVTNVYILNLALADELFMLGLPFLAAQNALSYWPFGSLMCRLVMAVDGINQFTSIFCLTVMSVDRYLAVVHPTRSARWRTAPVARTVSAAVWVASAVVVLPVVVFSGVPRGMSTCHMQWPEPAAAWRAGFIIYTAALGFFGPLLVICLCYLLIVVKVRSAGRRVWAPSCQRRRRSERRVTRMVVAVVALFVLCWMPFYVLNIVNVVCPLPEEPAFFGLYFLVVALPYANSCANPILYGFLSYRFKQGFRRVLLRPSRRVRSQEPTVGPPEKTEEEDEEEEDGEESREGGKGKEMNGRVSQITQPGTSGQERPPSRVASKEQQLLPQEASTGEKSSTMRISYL
SSTR1, sequence (P30872 whole entry): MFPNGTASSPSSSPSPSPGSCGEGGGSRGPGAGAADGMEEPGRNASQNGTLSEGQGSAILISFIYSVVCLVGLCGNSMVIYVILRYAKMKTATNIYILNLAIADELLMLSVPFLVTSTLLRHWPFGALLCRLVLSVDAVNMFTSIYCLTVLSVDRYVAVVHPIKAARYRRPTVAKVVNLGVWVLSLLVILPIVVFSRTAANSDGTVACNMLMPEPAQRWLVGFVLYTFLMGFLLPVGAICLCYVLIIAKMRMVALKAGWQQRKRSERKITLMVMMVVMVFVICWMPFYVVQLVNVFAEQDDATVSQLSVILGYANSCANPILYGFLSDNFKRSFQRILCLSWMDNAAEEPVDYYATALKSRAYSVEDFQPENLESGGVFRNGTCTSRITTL
SSTR5, sequence (P35346 whole entry): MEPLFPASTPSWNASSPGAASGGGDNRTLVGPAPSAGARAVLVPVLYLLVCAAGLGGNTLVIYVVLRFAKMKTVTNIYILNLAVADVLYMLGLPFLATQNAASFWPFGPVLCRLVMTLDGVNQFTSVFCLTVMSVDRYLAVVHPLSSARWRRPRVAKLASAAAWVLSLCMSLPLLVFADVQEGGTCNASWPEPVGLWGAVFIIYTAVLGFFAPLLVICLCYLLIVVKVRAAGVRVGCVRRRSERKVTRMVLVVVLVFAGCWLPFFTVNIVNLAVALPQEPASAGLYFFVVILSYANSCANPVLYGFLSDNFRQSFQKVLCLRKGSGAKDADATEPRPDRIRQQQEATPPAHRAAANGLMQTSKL

Molecule: C[C@@H](O)[C@@H]1NC(=O)[C@H](CCCCN)NC(=O)[C@@H](Cc2c[nH]c3ccccc23)NC(=O)[C@H](Cc2ccccc2)NC(=O)[C@@H](NC(=O)[C@H](CCCNC(=N)N)NC(=O)[C@@H](Cc2ccccc2)NC(=O)CN2CCN(CC(=O)O)CCN(CC(=O)O)CCN(CC(=O)O)CC2)CSSCCN(CC(N)=O)C(=O)[C@H](Cc2ccccc2)NC1=O [^68Ga -SEQ ID NO: 4, metal not drawn] ({DOTA}-[dF]RCF[dW]KTF[N(2-mercaptoethyl)Gly]-NH2; disulfide 3-9)
- tumor uptake above the kidneys (tumor/kidneys) [1]: approximately 50%
- Kidneys SUV ([1]; iv): 7.6
- Tumor SUV ([1]; iv): 11.0
- tissue uptake per volume at 2.5 h (in vivo; [8]): 6 %ID/mL
- tissue uptake per volume at 4 h (in vivo; [8]): 6.6 %ID/mL
- tissue uptake per volume at 2.5 h (in vivo; [9]): 9.6 %ID/mL
- tissue uptake per volume at 4 h (in vivo; [9]): 12.3 %ID/mL
- tissue uptake per volume at 2.5 h (in vivo; nude nu/nu, rat, Kidneys % ID/cm^3): 3.2 %ID/mL
- tissue uptake per volume at 2.5 h (in vivo; nude nu/nu, rat, Tumor % ID/cm^3): 4.7 %ID/mL
- safety evaluations ([2]; human, in vivo): no abnormal toxicity signs
- uptake in off-target organs ([2]; human, in vivo): no uptake in off-target organs
- elimination of the tracer ([2]; human, in vivo, iv): rapid elimination of the tracer was observed from the blood to the kidneys
- tumor uptake (radioactive foci) ([2]; patient with DSRCT, FIG. 9): several radioactive foci were detected in the lung, neck and pelvic regions

Molecule: C[C@@H](O)[C@@H]1NC(=O)[C@H](CCCCN)NC(=O)[C@@H](Cc2c[nH]c3ccccc23)NC(=O)[C@H](Cc2ccccc2)NC(=O)[C@@H](NC(=O)[C@H](CCCNC(=N)N)NC(=O)[C@H](N)Cc2ccccc2)CSSCCN(CC(N)=O)C(=O)[C@H](Cc2ccccc2)NC1=O [SEQ ID NO: 1, H-D-Phe^1-Arg^2-Cys^3-Phe^4-D-Trp^5-Lys^6-Thr^7-Phe^8-NTEG^9-NH^2 (cyclo 3-9)] (H-[dF]RCF[dW]KTF[N(2-mercaptoethyl)Gly]-NH2; disulfide 3-9)
- agonistic activity profile at SSTR3 (in words) (SSTR3 [3]): superagonistic activity profile of SSTR3 above the native hormone SRIF-14
- affinity and selectivity to SSTR3 (in words) (SSTR3 [4]): high affinity and selectivity to human cloned SSTR3 in the nanomolar range
- Hill coefficient (nH) (SSTR3 [4]): 1.28
- Ki (SSTR3 [4]): 0.15 nM
- IC50 (SSTR3 [4]): 0.43 nM
- Hill coefficient (nH) (SSTR1): 0.74
- Ki (SSTR1; [10]): 150 nM
- IC50 (SSTR1): 180 nM
- Hill coefficient (nH) (SSTR2 [5]): 1.25
- Ki (SSTR2 [5]; [10]): 320 nM
- IC50 (SSTR2 [5]): 390 nM
- Hill coefficient (nH) (hSSTR-4): 1.24
- Ki (hSSTR-4; [10]): > 1000 nM
- IC50 (hSSTR-4): > 1000 nM
- Hill coefficient (nH) (SSTR5): 1.2
- Ki (SSTR5; [10]): 170 nM
- IC50 (SSTR5): 310 nM
- inhibition of GH release (GH release; listed as SEQ ID NO.1): potent inhibitors of pituitary GH release
- inhibition of GH release (GH release; listed as SEQ ID NO:1): potent anti-secretagogue of growth hormone secretion
- effect on insulin release (insulin release): did not affect insulin release

Molecule: SRIF-28
- Efficacy - maximal response (SSTR2 [6]): 47480 RLU
- Note (SSTR2 [6]): Agonist

Molecule: C[C@@H](O)[C@@H]1NC(=O)[C@H](CCCCN)NC(=O)[C@@H](Cc2c[nH]c3ccccc23)NC(=O)[C@H](Cc2ccccc2)NC(=O)[C@@H](NC(=O)[C@H](CCCCN)NC(=O)[C@H](N)Cc2ccccc2)CSSCCN(CC(N)=O)C(=O)[C@H](Cc2ccccc2)NC1=O [SEQ ID NO: 2, H-D-Phe^1-Lys^2-Cys^3-Phe^4-D-Trp^5-Lys^6-Thr^7-Phe^8-NTEG^9-NH2 (cyclo 3-9)] (H-[dF]KCF[dW]KTF[N(2-mercaptoethyl)Gly]-NH2; disulfide 3-9)
- affinity and selectivity to SSTR3 (in words) (SSTR3 [4]): retained the binding affinity and selectivity to SSTR3
- Hill coefficient (nH) (SSTR3 [4]): 1.09
- Ki (SSTR3 [4]): 0.25 nM
- IC50 (SSTR3 [4]): 0.73 nM
- IC50 (SSTR1): > 100 nM
- IC50 (SSTR2 [5]): > 500 nM
- IC50 (hSSTR-4): > 1000 nM
- surface activity profile [7]: favorable surface activity profile by means of reduced nonspecific binding
- IC50 (SSTR5): > 500 nM
- inhibition of GH release (GH release): potent inhibitors of pituitary GH release
- effect on insulin release (insulin release): did not affect insulin release
